Test system: récepteurs surrénaliens de l'angiotensine II
Assay: Displacement of radioligand [125I]-SIAII specifically bound to rat adrenal angiotensin II receptors
Assay type: binding
Details: rat adrenal homogenate, 60 min at 25°C
Source text: L'affinité des produits des exemples pour les récepteurs de l'angiotensine Il est évaluée par technique de déplacement d'un radioligand spécifiquement fixé sur les récepteurs surrénaliens de l'angiotensine II, chez le rat.
Une aliquote d'un homogénat de surrénales de rat incube en présence d'une concentration unique de [^125| ] - SIAII (Sar^1, Tyr^4, lle^8- angiotensine II), antagoniste des récepteurs de l'angiotensine II, et de deux concentrations d'agents compétiteurs (10^-5 M, 10-^7 M), durant 60 min à 25°C.
La réaction est achevée par ajout de tampon, puis rapide filtration à travers des filtres de papier de verre. La liaison non spécifique est déterminée en présence d'angiotensine II.
Les résultats sont exprimés, pour les concentrations testées, en pourcentage de déplacement du radioligand spécifiquement fixé sur les récepteurs surrénaliens de l'angiotensine II.

## CCCc1nc(C)n(CC(=O)OCC)c(=O)c1Cc1ccc(NC(=O)c2ccccc2S(=O)(=O)O)cc1 [Exemple 13]
Competitor 1E-5M, 10 µM
  % de déplacement du ligand marqué: 96%
Competitor 1E-7M, 0.1 µM
  % de déplacement du ligand marqué: 64%

## CCCc1nc(C)n(CC(=O)O)c(=O)c1Cc1ccc(NC(=O)c2c(Cl)ccc(Cl)c2C(=O)O)cc1 [Exemple 14, Acide [n-propyl-4 méthyl-2 oxo-6 [(carboxy-2 dichloro-3,6-phényl)carbonylamino-4 phénylméthyl]-5 pyrimidine-yl-1 (6H)-] acétique]
Competitor 1E-5M, 10 µM
  % de déplacement du ligand marqué: 81%
Competitor 1E-7M, 0.1 µM
  % de déplacement du ligand marqué: 38%

## CCCc1nc(C)nc(OCCO)c1Cc1ccc(-c2ccccc2C(=O)O)cc1 [Exemple 16, Acide [n-propyl-6 méthyl-2 hydroxy éthyloxy-4 pyrimidine-yl-5] méthyl-4' biphényl-2 carboxylique]
Competitor 1E-5M, 10 µM
  % de déplacement du ligand marqué: 65%
Competitor 1E-7M, 0.1 µM
  % de déplacement du ligand marqué: 31%

## CCCc1nc(C)nc(SCC(=O)OCC)c1Cc1ccc(NC(=O)c2ccccc2S(=O)(=O)O)cc1 [Exemple 24, Acide [[n-Propyl-6 méthyl-2 (éthoxycarbonyl méthyl mercapto)-4 pyrimidine-yl-5]méthylphényl-yl-4] amino carbonyl-2 benzène sulfonique]
Competitor 1E-5M, 10 µM
  % de déplacement du ligand marqué: 93%
Competitor 1E-7M, 0.1 µM
  % de déplacement du ligand marqué: 62%

## CCCc1nc(C)nc(OC(=O)N(C)C)c1Cc1ccc(NC(=O)c2ccccc2S(=O)(=O)O)cc1 [Exemple 27, Acide [[n-propyl-6 méthyl-2 (N,N-diméthyl amino carbonyloxy)-4 pyrimidine-yl-5]méthylphényl-yl-4] amino carbonyl-2 benzène sulfonique]
Competitor 1E-5M, 10 µM
  % de déplacement du ligand marqué: 76%
Competitor 1E-7M, 0.1 µM
  % de déplacement du ligand marqué: 20%

## CCCc1nc(C)nc(OC)c1Cc1ccc(-c2ccccc2-c2nn[nH]n2)cc1 [Exemple 31, n-Propyl-6 méthy1-2 méthoxy-4 [(tétrazol-yl-5)-2' biphényl-yl-4] méthyl-5 pyrimidine]
Competitor 1E-5M, 10 µM
  % de déplacement du ligand marqué: 71%
Competitor 1E-7M, 0.1 µM
  % de déplacement du ligand marqué: 51%

## CCCc1nc(C)n(CC(=O)OCC)c(=O)c1Cc1ccc(-c2ccccc2-c2nn[nH]n2)cc1 [Exemple 32, [n-Propyl-4 méthyl-2 oxo-6 [(tétrazol-yl-5)-2' biphényl-yl-4]méthyl-5 pyrimidine-yl-1 (6H)-] acétate d'éthyle]
Competitor 1E-5M, 10 µM
  % de déplacement du ligand marqué: 94%
Competitor 1E-7M, 0.1 µM
  % de déplacement du ligand marqué: 67%

## CCCc1nc(C)nc(SCC(=O)OCC)c1Cc1ccc(-c2ccccc2-c2nn[nH]n2)cc1 [Exemple 33, [n-Propyl-6 méthyl-2 [(tétrazol-yl-5)-2' biphényl-yl-4]méthyl-5 pyrimidine-yl-4] mercapto acétate d'éthyle]
Competitor 1E-5M, 10 µM
  % de déplacement du ligand marqué: 69%
Competitor 1E-7M, 0.1 µM
  % de déplacement du ligand marqué: 62%

## CCCc1nc(C)nc(SCCO)c1Cc1ccc(NC(=O)c2ccccc2S(=O)(=O)O)cc1 [Exemple 54, Acide [(n-Propyl-6 méthyl-2 hydroxyéthylmercapto-4 pyrimidine-yl-5)methylphenyl-yl-4] amino carbonyl-2 benzène sulfonique]
Competitor 1E-5M, 10 µM
  % de déplacement du ligand marqué: 84%
Competitor 1E-7M, 0.1 µM
  % de déplacement du ligand marqué: 65%

## CCCCc1nc(C)nc(SCCO)c1Cc1ccc(NC(=O)c2ccccc2S(=O)(=O)O)cc1 [Exemple 55, Acide [(n-butyl-6 méthyl-2 hydroxyéthylmercapto-4 pyrimidine-yl-5)méthylphényl-yl-4] amino carbonyl-2 benzène sulfonique]
Competitor 1E-5M, 10 µM
  % de déplacement du ligand marqué: 86%
Competitor 1E-7M, 0.1 µM
  % de déplacement du ligand marqué: 60%

## CCCc1nc(C)nc(N2CCOCC2)c1Cc1ccc(NC(=O)c2ccccc2S(=O)(=O)O)cc1 [Exemple 56, Acide [[n-Propyl-6 méthyl-2 (morpholine-yl-1)-4 pyrimidine-yl-5]méthylphényl-yl-4] amino carbonyl-2 benzène sulfonique]
Competitor 1E-5M, 10 µM
  % de déplacement du ligand marqué: 86%
Competitor 1E-7M, 0.1 µM
  % de déplacement du ligand marqué: 59%

## CCCCc1nc(C)nc(N)c1Cc1ccc(NC(=O)c2ccccc2S(=O)(=O)O)cc1 [Exemple 57, Acide [(n-Butyl-6 méthyl-2 amino-4 pyrimidine-yl-5)méthylphényl-yl-4] amino carbonyl-2 benzène sulfonique]
Competitor 1E-5M, 10 µM
  % de déplacement du ligand marqué: 80%
Competitor 1E-7M, 0.1 µM
  % de déplacement du ligand marqué: 69%

## CCCc1nc(C)nc(N2CCN(c3ccccc3OC)CC2)c1Cc1ccc(NC(=O)c2ccccc2S(=O)(=O)O)cc1 [Exemple 58, Acide [[n-Propyl-6 méthyl-2 ((méthoxy-2 phényl)pipérazine-yl-4)-4 pyrimidine-yl-5]méthylphényl-yl-4] amino carbonyl-2 benzène sulfonique]
Competitor 1E-5M, 10 µM
  % de déplacement du ligand marqué: 78%
Competitor 1E-7M, 0.1 µM
  % de déplacement du ligand marqué: 53%

## CCCc1nc(C)nc(SC)c1Cc1ccc(NC(=O)c2ccccc2S(=O)(=O)O)cc1 [Exemple 59, Acide [[n-Propyl-6 méthyl-2 méthylthio-4 pyrimidine-yl-5]méthylphényl-yl-4] amino carbonyl-2 benzène sulfonique]
Competitor 1E-5M, 10 µM
  % de déplacement du ligand marqué: 89%
Competitor 1E-7M, 0.1 µM
  % de déplacement du ligand marqué: 57%

## CCCCc1nc(C)nc(SCC(=O)OCC)c1Cc1ccc(NC(=O)c2ccccc2S(=O)(=O)O)cc1 [Exemple 61, Acide [[n-Butyl-6 Méthyl-2 (éthoxycarbonyl méthyl thio)-4 pyrimidine-yl-5]méthylphényl-yl-4] amino carbonyl-2 benzène sulfonique]
Competitor 1E-5M, 10 µM
  % de déplacement du ligand marqué: 96%
Competitor 1E-7M, 0.1 µM
  % de déplacement du ligand marqué: 63%

## CCCCc1nc(-c2ccccc2)nc(SCC(=O)OCC)c1Cc1ccc(NC(=O)c2ccccc2S(=O)(=O)O)cc1 [Exemple 75, Acide [[n-butyl-6 phényl-2 (éthoxy carbonyl méthyl thio)-4 pyrimidine-yl-5]méthylphényl-yl-4] amino carbonyl-2 benzène sulfonique]
Competitor 1E-5M, 10 µM
  % de déplacement du ligand marqué: 72%
Competitor 1E-7M, 0.1 µM
  % de déplacement du ligand marqué: 0%

## CCCCc1nc(C(C)C)nc(SCC(=O)OCC)c1Cc1ccc(NC(=O)c2ccccc2S(=O)(=O)O)cc1 [Exemple 76, Acide [[n-butyl-6 isopropyl-2 (éthoxy carbonyl méthyl thio)-4 pyrimidine-yl-5]méthylphényl-yl-4] amino carbonyl-2 benzène sulfonique]
Competitor 1E-5M, 10 µM
  % de déplacement du ligand marqué: 93%
Competitor 1E-7M, 0.1 µM
  % de déplacement du ligand marqué: 37%

## CCCCc1nc(-c2ccccc2)nc(SCCO)c1Cc1ccc(NC(=O)c2ccccc2S(=O)(=O)O)cc1 [Exemple 77, Acide [[n-butyl-6 phényl-2 (hydroxy éthyl thio)-4 pyrimidine-yl-5]méthylphényl-yl-4] amino carbonyl-2 benzène sulfonique]
Competitor 1E-5M, 10 µM
  % de déplacement du ligand marqué: 63%
Competitor 1E-7M, 0.1 µM
  % de déplacement du ligand marqué: 4%

## CCCCc1nc(C(C)C)nc(SCCO)c1Cc1ccc(NC(=O)c2ccccc2S(=O)(=O)O)cc1 [Exemple 78, Acide [[n-butyl-6 isopropyl-2 (hydroxy éthyl thio)-4 pyrimidine-yl-5]méthylphényl-yl-4] amino carbonyl-2 benzène sulfonique]
Competitor 1E-5M, 10 µM
  % de déplacement du ligand marqué: 74%
Competitor 1E-7M, 0.1 µM
  % de déplacement du ligand marqué: 41%

From patent EP0465323A1, “Pyrimidin derivatives, angiotensin II receptor antagonists, their process of preparation and pharmaceutical compositions containing them” (LABORATOIRES UPSA, priority 1990, dated 1992)
